≈ marks a conversion by molar mass, not a printed value. Like-named read-outs stand apart in the source and are kept apart here.
What was measured:
[1] = system: Staphylococcus aureus (S. aureus) 11540 strain; assay: standard microdilution MIC, S. aureus; type: cell-based; conditions: Staphylococcus aureus
Procedure: (§1) The in vitro activity of the compounds of the present disclosure can be determined. Antimicrobial testing is typically performed to determine the minimum inhibitory concentration (MIC). Minimum inhibitory concentrations (MICs) are determined by the microdilution method in a final volume of 100 μl according to protocols outlined by The Clinical and Laboratory Standards Institute (CLSI). Performance standards for reference strains are assessed within the same experimental design to maintain quality control. See, for example, Clinical Laboratory Standards Institute: Methods for dilution antimicrobial susceptibility tests for bacteria that grow aerobically M7-A8. Approved Standard-Eighth Edition. Wayne, Pa.: CLSI; December 2008; and Clinical Laboratory Standards Institute: Performance Standards for Antimicrobial Susceptibility Testing M100-S20; Approved Standard-Twentieth Edition. Wayne, Pa.: CLSI; June 2010.
(§2) The compounds of the present disclosure were tested for antimicrobial activity. The Compounds 1-23 were run against Eschericia coli (E. coli) strain ATCC25922 and against Staphylococcus aureus (S. aureus) 11540 strain using a standard microdilution assay to determine minimum inhibitory concentrations (MICs). […] It will be recognized by one skilled in the art that the compounds can be assessed against other bacterial organisms and that the presentation of data for activity against Eschericia coli and Staphylococcus aureus are illustrative and in no way is intended to limit the scope of the present disclosure. The compounds of the present disclosure can be assayed against a range of other microorganisms depending upon the performance activity desired to be gathered. Furthermore, the “+” and “−” representation and the selection of a cutoff value of 16 micrograms/mL is also illustrative and in no way is intended to limit the scope of the present disclosure.

[2] = system: Eschericia coli (E. coli) strain ATCC25922; assay: standard microdilution MIC, E. coli; type: cell-based, Escherichia coli; conditions: Escherichia coli
Procedure: as §1, §2

[3] = system: Chinese hamster ovary (CHO) cells; assay: cytotoxicity against CHO cell line (Cell Titer Blue); type: cell-based; conditions: Cricetulus griseus, 24 h, CHO-K1 cells, 24 hours incubation, percent cell kill
Procedure: The compounds of the present disclosure were tested for cytotoxicity against Chinese hamster ovary (CHO) cells.
The assay was performed by seeding CHO—K1 in F12K medium containing 13.33% Fetal Bovine Serum […]. 37.5 μl of cell suspension at a concentration of 9,500 cells/well was plated into each column of a 384-well black clear bottom assay plate with the exception of a negative (no cell) control column, and allowed to adhere for 2 hours. The culture media was then removed from the 175 cm^2 flask(s) and the cell monolayer washed with 10 mL of Phosphate Buffered Saline PBS. 3 mL of Cellstripper™ was then added and the flask was incubated for approximately 5 min at 37° C. The cells were dissociated by agitation and 7 mL of F 12K medium containing 10% FBS was added to the flask. A homogeneous cell suspension was obtained by trituration of the flask. The cells were counted with a hemocytometer by diluting an aliquot of the cell suspension in PBS with 0.4% trypan blue. Typically, a ratio of 100 μl cell suspension to 1800 μl PBS to 100 μl trypan blue was used.
The volume of cell suspension containing the number of cells needed to seed the plate(s) (15.2 mL containing 3.8×10^6 cells) was calculated and transferred to a 50 mL centrifuge tube with the appropriate volume of media. 37.5 μl of cells were added to each well of the 384 well plate except for the negative (no cell) control column. A cytotoxicity 100-fold dilution plate was then prepared by manually pipetting 18 μl of 100% DMSO into two columns of an empty low volume dilution plate. 2 μl of a 50 mM solution of compounds 1-23 from the translation plate were manually pipetted into the corresponding columns of the 100-fold dilution plate. 10 μl of 100% DMSO was manually pipetted into all remaining columns of the 100-fold plate.
A 4-fold cytotoxicity plate was prepared beforehand by manually pipetting 48 μl of F12K media (without DMSO and without FBS) into each well of a matrix 384 well plate. The test samples in the 100-fold dilution plate were mixed and diluted. Ten 2-fold dilutions were performed for each compound in duplicate. The 384 cannula array then transferred 2 μl to the 48 μl of media in the cytotoxicity 4-fold dilution plate. The array was then mixed and 12.5 μl of samples from the cytotoxicity 4-fold dilution plate were transferred to the 37.5 μl of cells and media. The final top concentration of samples at this point in the procedure was 50 μM with 10 subsequent 1:2 dilutions down to […]. The final DMSO concentration were 1% and the final concentration of FBS was 10%.
Cycloheximide was run as a control. Specifically, Cycloheximide was diluted to 0.1 mM from 100 mM stock […] and was added to the cytotoxicity 100-fold plate. Upon addition to the cell plate, a range of 1 μM to 1 nM of cycloheximide was run.
A column separate from the one (referred to above) that served as the negative control was used for cell control wells to which only media was added.
The plates were then incubated for 24 hours at 37° C. and 5% CO2. […] The two columns used earlier to prepare the 100-fold dilution plate by pipetting 18 μl of 100% DMSO contained the samples tested at 200 μM. After the 24 hour incubation period, the 4 μl of Cell Titer blue was added to each well using a Multichannel Matrix pipettor. The plates were returned to the incubator and incubated for an additional 5 hours. Fluorescence (530 nm excitation wavelength/590 nm emission wavelength) was measured on a Wallac Victor microplate reader.
Cell viability was assessed fluorometrically after a 5 hour incubation with resazurin (Cell Titer Blue™), which is reduced by living cells to the fluorescent resorufin.
The average fluorescence for the negative control was determined to obtain the average blank fluorescence. The average blank fluorescence was subtracted from the fluorescence values obtained for all the test agents. The resulting values are the corrected fluorescence. […]

E. coli DH10B recipient = assay: CLSI broth microdilution MIC, E. coli DH10B recipient; type: cell-based; conditions: Escherichia coli, DH10BRECIPIENT, read-out: MIC
Procedure: (§3) Four compounds, including Compound No. 8 of the present application (RX-04D) were tested against (i) multiresistant Enterobacteriaceae and Acinetobacter with carbapenemases; (ii) Enterobacteriaceae with MCR-1; and (iii) P. aeruginosa with altered efflux (see Tables 4 and 5). In this case, MCR-1 is relevant because its activity reduces the negative charge of lipopolysaccharides, potentially affecting binding of poly-basic molecules such as the compounds tested herein, as well as polymyxins.
(§4) MICs of the four tested compounds and comparators (amikacin, cefepime, colistin, meropenem and tigecyline) were determined by CLSI broth microdilution using pre-prepared plates (Trek Diagnostic Systems) (CLSI Approved Standard M7-A10). Carbapenemase and mcr-1 genes were detected by PCR or sequencing. Efflux levels in P. aeruginosa isolates were inferred by interpretive reading of antibiogram data.

[4] = system: E. coli DH10B mcr-1 transformant; assay: CLSI broth microdilution MIC, E. coli DH10B mcr-1 transformant; type: cell-based; conditions: Escherichia coli
Procedure: as §3, §4

[5] = system: Enterobacteriaceae (n=68); assay: CLSI broth microdilution MIC, Enterobacteriaceae panel; type: cell-based; conditions: for peak of unimodal MIC distribution: 68 Enterobacteriaceae
Procedure: as §3, §4

[6] = system: A. baumannii isolates (n=10); assay: CLSI broth microdilution MIC, A. baumannii; type: cell-based; conditions: for relative activity among analogues: 10 A. baumannii; for MIC: Acinetobacter baumannii, A. baumannii
Procedure: as §3, §4

P. aeruginosa (n=20) = assay: CLSI broth microdilution MIC, P. aeruginosa; type: cell-based; conditions: for share of MICs ≥16 mg/L: P. aeruginosa isolates, stated jointly for analogues C and D; for MIC: Pseudomonas aeruginosa
Procedure: as §3, §4

CPE (n=36) = assay: CLSI broth microdilution MIC, carbapenemase producers (CPE); type: cell-based, Enterobacteriaceae; conditions: 35/36 (97%) for RX-04A
Procedure: as §3, §4

[7] = system: Enterobacteriaceae with MCR-1 (MCR-1 isolates, n=14); assay: CLSI broth microdilution MIC, MCR-1 isolates; type: cell-based; conditions: all MCR-1 isolates (n=14)
Procedure: as §3, §4

Structure (SMILES) | MIC [1] [µg/mL] | MIC [2] [µg/mL] | IC50 [3] [µM] | MIC (E. coli DH10B recipient) [µg/mL] | MIC [4] [µg/mL] | peak of unimodal MIC distribution [5] [µg/mL] | relative activity among analogues [6] | share of MICs ≥16 mg/L (P. aeruginosa (n=20)) [%] | MIC ([5]; 67/68 (>98%) of Enterobacteriaceae, read-out: MICs) [µg/mL] | MIC ([5]; Enterobacteriaceae, summary, read-out: MICs mostly) [µg/mL] | MIC relative to MIC for E. coli ATCC 25922 (CPE (n=36)) [fold] | MIC relative to MIC for E. coli ATCC 25922 [7] [fold] | MIC ([6]; 7/10 values, read-out: MICs) [µg/mL] | MIC ([6]; summary, read-out: MICs mostly) [µg/mL] | change of MIC with elevated efflux (P. aeruginosa (n=20); P. aeruginosa isolates with elevated efflux) | MIC (P. aeruginosa (n=20); 19/20 (95%) P. aeruginosa isolates, read-out: MICs) [µg/mL] | MIC (P. aeruginosa (n=20); P. aeruginosa, summary, read-out: MICs mostly) [µg/mL]
C[C@H](N)CCCc1cc(Cl)c(F)c(-c2cc3cn(-c4ccc([C@@H]5CCC[C@@H](CCNC(=N)CN)N5)cc4)c(=O)nc3[nH]2)c1 [Compound 8] | ≤ 16 | ≤ 16 | 95.2 | 1 (≈ 1.65 µM) | 1 (≈ 1.65 µM) | 2 | least active analogue | 48 |  |  |  |  |  |  |  |  | 
C[C@H](N)CCCc1cc(OC(F)(F)F)c(F)c(-c2cc3cn(-c4ccc([C@@H]5CCC[C@@H](CCNC(=N)N)N5)cc4)c(=O)nc3[nH]2)c1 [RX-04A] |  |  |  | 0.25 (≈ 0.389 µM) | 0.25 (≈ 0.389 µM) | 1 | lowest MICs |  | 0.25 to 2 (≈ 0.389 to 3.11 µM) | 1 to 2 (≈ 1.56 to 3.11 µM) | ≤ 4 | ≤ 2 | 1 to 2 (≈ 1.56 to 3.11 µM) | 1 to 2 (≈ 1.56 to 3.11 µM) | not raised | 1 to 4 (≈ 1.56 to 6.22 µM) | 1 to 4 (≈ 1.56 to 6.22 µM)
CC(=N)NCC[C@@H]1CCC[C@@H](c2ccc(-n3cc4cc(-c5cc(CCC[C@@H](N)CO)cc(Cl)c5F)[nH]c4nc3=O)cc2F)N1 [RX-04B] |  |  |  | 0.5 (≈ 0.799 µM) | 0.5 (≈ 0.799 µM) | 1 |  |  |  |  |  |  |  |  |  |  | 
CSc1cc(-n2cc3cc(-c4cc(CCC[C@@H](N)C5CC5)cc(Cl)c4F)[nH]c3nc2=O)ccc1[C@@H]1CCC[C@@H](CCNC(C)=N)N1 [RX-04C] |  |  |  | 0.5 (≈ 0.753 µM) | 0.5 (≈ 0.753 µM) | 2 |  | 48 |  |  |  |  |  |  |  |  | 

From patent US10815237B2, “Antimicrobials and methods of making and using same” (BIOVERSYS AG, priority 2016, dated 2020)
